Earlier results, collected in publication doi:10.1101/2024.08.20.608791v1 (bioRxiv, 2024).

Details: assay not specified

in vitro permeability (in words)	Compound
limited permeability	C=C1C[C@@]23CC[C@H]4[C@@](C)(CCC[C@@]4(C)C(=O)O[C@@H]4O[C@H](CO)[C@@H](O)[C@H](O)[C@H]4O)[C@@H]2CC[C@]1(O[C@@H]1O[C@H](CO)[C@@H](O)[C@H](O)[C@H]1O[C@@H]1O[C@H](CO)[C@@H](O)[C@H](O)[C@H]1O)C3 [stevioside]
moderate in vitro permeability	NNC(=O)NN1C(=O)c2cc(S(=O)(=O)O)cc3c(N)c(S(=O)(=O)O)cc(c23)C1=O [lucifer yellow CH]
low in vitro permeability	pasireotide

Same assay, conditions: not able to quantify in an in vitro permeability assay (≤LOQ)

in vitro permeability, not able to quantify	Compound
≤ LOQ	Nc1nc(=O)c2c([nH]1)NCC(CNc1ccc(C(=O)N[C@@H](CCC(=O)O)C(=O)O)cc1)N2C=O (mixture of isomers) [Folinic acid]
≤ LOQ	Cc1ccc(C(=O)Nc2ccc(S(=O)(=O)O)c3cc(S(=O)(=O)O)cc(S(=O)(=O)O)c23)cc1NC(=O)c1cccc(NC(=O)Nc2cccc(C(=O)Nc3cc(C(=O)Nc4ccc(S(=O)(=O)O)c5cc(S(=O)(=O)O)cc(S(=O)(=O)O)c45)ccc3C)c2)c1 [suramin]
≤ LOQ	CO/N=C(\C(=O)N[C@@H]1C(=O)N2C(C(=O)O)=C(CSc3nc(C)c(CC(=O)O)s3)CS[C@H]12)c1csc(N)n1 [Cefodizime]
≤ LOQ	COC(=O)N[C@H](C(=O)N1CCC[C@H]1C(=O)Nc1ccc([C@@H]2CC[C@@H](c3ccc(NC(=O)[C@@H]4CCCN4C(=O)[C@@H](NC(=O)OC)C(C)C)cc3)N2c2ccc(C(C)(C)C)cc2)cc1)C(C)C [Ombitasvir]
≤ LOQ	terlipressin
≤ LOQ	CC(=O)O[C@H]1C(=O)[C@@]2(C)[C@H]([C@H](OC(=O)c3ccccc3)[C@]3(O)C[C@H](OC(=O)[C@H](O)[C@@H](NC(=O)c4ccccc4)c4ccccc4)C(C)=C1C3(C)C)[C@]1(OC(C)=O)CO[C@@H]1C[C@@H]2O [paclitaxel]
≤ LOQ	CC[C@]1(O)C[C@H]2CN(CCc3c([nH]c4ccccc34)[C@@](C(=O)OC)(c3cc4c(cc3OC)N(C=O)[C@H]3[C@@](O)(C(=O)OC)[C@H](OC(C)=O)[C@]5(CC)C=CCN6CC[C@]43[C@@H]65)C2)C1 [vincristine]
≤ LOQ	Vancomycin
≤ LOQ	CC(C)(C)OC(=O)N[C@H]1CCCCC/C=C\[C@@H]2C[C@@]2(C(=O)NS(=O)(=O)C2CC2)NC(=O)[C@@H]2C[C@@H](OC(=O)N3Cc4cccc(F)c4C3)CN2C1=O [danoprevir]
≤ LOQ	dalbavancin
≤ LOQ	octreotide
≤ LOQ	CO/N=C(\C(=O)N[C@@H]1C(=O)N2C(C(=O)O)=C(CSc3nc(=O)c(=O)[nH]n3C)CS[C@H]12)c1csc(N)n1 [Ceftriaxone]

Compound	in vitro permeability, not able to quantify
N#C[C@H](O[C@@H]1O[C@H](CO[C@@H]2O[C@H](CO)[C@@H](O)[C@H](O)[C@H]2O)[C@@H](O)[C@H](O)[C@H]1O)c1ccccc1 [Amygdalin]	≤ LOQ

Details: <LOQ

solubility in water (in words)	Compound
practically insoluble in water	CO[C@H]1/C=C/O[C@@]2(C)Oc3c(C)c(O)c4c(O)c(c5c(nc6cc(C)ccn65)c4c3C2=O)NC(=O)/C(C)=C\C=C\[C@H](C)[C@H](O)[C@@H](C)[C@@H](O)[C@@H](C)[C@H](OC(C)=O)[C@@H]1C [rifaximin]
practically insoluble in water	bivalirudin
practically insoluble in water	quinupristin
practically insoluble in water	CO[C@H]1C[C@@H]2CC[C@@H](C)[C@@](O)(O2)C(=O)C(=O)N2CCCC[C@H]2C(=O)O[C@H]([C@H](C)C[C@@H]2CC[C@@H](OP(C)(C)=O)[C@H](OC)C2)CC(=O)[C@H](C)/C=C(\C)[C@@H](O)[C@@H](OC)C(=O)[C@H](C)C[C@H](C)/C=C/C=C/C=C/1C [ridaforolimus]
practically insoluble in water	CC[C@H]1OC(=O)[C@H](C)[C@@H](O[C@H]2C[C@@](C)(OC)[C@@H](O)[C@H](C)O2)[C@H](C)[C@@H](O[C@@H]2O[C@H](C)C[C@H](N(C)C)[C@H]2O)[C@](C)(O)C[C@@H](C)CN(C)[C@H](C)[C@@H](O)[C@]1(C)O [Azithromycin]
practically insoluble in water	CO[C@H]1C[C@@H]2CC[C@@H](C)[C@@](O)(O2)C(=O)C(=O)N2CCCC[C@H]2C(=O)O[C@H]([C@H](C)C[C@@H]2CC[C@@H](OCCO)[C@H](OC)C2)CC(=O)[C@H](C)/C=C(\C)[C@@H](O)[C@@H](OC)C(=O)[C@H](C)C[C@H](C)/C=C/C=C/C=C/1C [everolimus]
practically insoluble in water	COC(=O)N[C@H](C(=O)N1CCC[C@H]1c1nc(-c2ccc3c(c2)O[C@@H](c2ccccc2)n2c-3cc3cc(-c4c[nH]c([C@@H]5CCCN5C(=O)[C@@H](NC(=O)OC)C(C)C)n4)ccc32)c[nH]1)C(C)C [elbasvir]
practically insoluble in water	voclosporin

Details: humans

Compound	fraction absorbed (fa) of approved oral drugs [%]
CO[C@H]1C[C@H](O[C@H]2CC[C@]3(C=O)[C@H]4CC[C@]5(C)[C@@H](C6=CC(=O)OC6)CC[C@]5(O)[C@@H]4CC[C@]3(O)C2)O[C@H](C)[C@H]1O[C@@H]1O[C@H](CO[C@@H]2O[C@H](CO)[C@@H](O)[C@H](O)[C@H]2O)[C@@H](O)[C@H](O)[C@H]1O [k-strophanthoside]	16

Details: as reported in Table 1 and text; source and method not stated

log P	Compound
5.2	CC(C)c1nc(CN(C)C(=O)N[C@H](C(=O)N[C@@H](Cc2ccccc2)C[C@H](O)[C@H](Cc2ccccc2)NC(=O)OCc2cncs2)C(C)C)cs1 [Ritonavir]
6.4	CCc1c(Cl)c(O)c(Cl)c(O)c1C(=O)O[C@H]1[C@H](O)[C@H](OC)[C@H](OC/C2=C\C=C\C[C@H](O)/C(C)=C/[C@H](CC)[C@@H](O[C@@H]3OC(C)(C)[C@@H](OC(=O)C(C)C)[C@H](O)[C@@H]3O)/C(C)=C/C(C)=C/C[C@@H]([C@@H](C)O)OC2=O)O[C@@H]1C [Fidaxomicin]
4.8	CN1Cc2c(Cl)cc(Cl)cc2[C@H](c2cccc(S(=O)(=O)NCCOCCOCCNC(=O)NCCCCNC(=O)NCCOCCOCCNS(=O)(=O)c3cccc([C@@H]4CN(C)Cc5c(Cl)cc(Cl)cc54)c3)c2)C1 [Tenapanor]
-2.3	Teicoplanin A2 1
5.1	COC(=O)N[C@H](C(=O)N1CCC[C@H]1c1nc(-c2ccc(-c3ccc(-c4c[nH]c([C@@H]5CCCN5C(=O)[C@@H](NC(=O)OC)C(C)C)n4)cc3)cc2)c[nH]1)C(C)C [Daclatasvir]
5.7	COC(=O)N[C@H](C(=O)N1CCC[C@H]1C(=O)Nc1ccc([C@@H]2CC[C@@H](c3ccc(NC(=O)[C@@H]4CCCN4C(=O)[C@@H](NC(=O)OC)C(C)C)cc3)N2c2ccc(C(C)(C)C)cc2)cc1)C(C)C [Ombitasvir]
5.8	CC(C)[C@@H](C)[C@@]1(C)CC[C@]2(C)[C@H]3CC[C@@H]4[C@@]5(COC[C@@]4(C)[C@@H](OC[C@](C)(N)C(C)(C)C)[C@H](n4ncnc4-c4ccncc4)C5)C3=CC[C@@]2(C)[C@@H]1C(=O)O [Ibrexafungerp]
9.3	COc1cc(F)c(C(C)C)cc1-c1ccc(C(F)(F)F)cc1CN1C(=O)O[C@H](c2cc(C(F)(F)F)cc(C(F)(F)F)c2)[C@@H]1C [anacetrapib]
5.4	CC[C@H]1OC(=O)[C@H](C)C(=O)[C@H](C)[C@@H](O[C@@H]2O[C@H](C)C[C@H](N(C)C)[C@H]2O)[C@](C)(OC/C=C/c2cnc3ccccc3c2)C[C@@H](C)C(=O)[C@H](C)[C@H]2NC(=O)O[C@@]21C [Cethromycin]

Compound	log P
Neomycin	-6.6
